Laboratory results from PubChem BioAssay (NCI).
Values joined by “and” are separate entries in the source; they are usually repeats but may differ in a detail not shown here. Equal values may be shown once.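 Where inhibition never reached the appropriate level, the endpoint shown equals the highest concentration tested. Otherwise, values were interpolated linearly from a five-concentration, 48-hour dose response in 96-well plates. At the GI50, growth is halved. The concentration for full growth arrest is given as TGI.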

Key:
Experiment in all cases: inhibition of tumour cell growth, NCI panel, 48 h
HCC-2998 colon = tested on: HCC-2998 colon
HT29 colon = tested on: HT29 colon
LOX IMVI melanoma = tested on: LOX IMVI melanoma
SF-295 CNS = tested on: SF-295 CNS
SK-OV-3 ovarian = tested on: SK-OV-3 ovarian
SNB-19 CNS = tested on: SNB-19 CNS
UACC-257 melanoma = tested on: UACC-257 melanoma
NCI/ADR-RES ovarian = tested on: NCI/ADR-RES ovarian
PC-3 prostate = tested on: PC-3 prostate
SF-539 CNS = tested on: SF-539 CNS

| SMILES | TGI (HCC-2998 colon) | TGI (HT29 colon) | TGI (LOX IMVI melanoma) [µM] | TGI (SF-295 CNS) | TGI (SK-OV-3 ovarian) | TGI (SNB-19 CNS) [µM] | TGI (UACC-257 melanoma) [µM] | TGI (NCI/ADR-RES ovarian) | TGI (PC-3 prostate) | TGI (SF-539 CNS) | GI50 (HCC-2998 colon) | GI50 (HT29 colon) | GI50 (LOX IMVI melanoma) [µM] | GI50 (PC-3 prostate) | GI50 (SF-295 CNS) [µM] | GI50 (SF-539 CNS) | GI50 (SK-OV-3 ovarian) [µM] | GI50 (SNB-19 CNS) [µM] | GI50 (UACC-257 melanoma) [µM] | GI50 (NCI/ADR-RES ovarian) |
| --- | --- | --- | --- | --- | --- | --- | --- | --- | --- | --- | --- | --- | --- | --- | --- | --- | --- | --- | --- | --- |
| COc1ccc(C2C(Cl)C(=O)N2n2cnc3ccccc3c2=O)cc1OC (stereo unspecified) | > 100 µM | > 100 µM | > 100 | > 100 µM | > 100 µM | > 100 | > 100 | – | – | – | – | – | – | – | – | – | – | – | – | – |
| CC(C)c1ccc2nc3ccc(C(=O)NCCN(C)C)cn3c(=O)c2c1 | 31.7 µM | 24.5 µM | – | 23.8 µM | 33.5 µM | > 100 | 27.8 | 62.9 µM | 30.6 µM | 29.2 µM | – | – | – | – | – | – | – | – | – | – |
| COc1ccc(C(C2=C(C)C(=O)c3ccccc3C2=O)c2ccc(C(C)C)cc(=O)c2O)cc1 (stereo unspecified) | – | 35.3 µM | 17.6 | 23 µM | 14.6 µM | – | – | – | – | 5.8 µM | – | – | – | – | – | – | – | – | – | – |
| CSc1nc2c(c(O)c(C)c(=O)n2C2OC(COC(C)=O)C(OC(C)=O)C(OC(C)=O)C2OC(C)=O)c(=O)n1C (stereo unspecified) | > 100 µM | > 100 µM | > 100 | > 100 µM | > 100 µM | > 100 | > 100 | – | – | > 100 µM | – | – | – | – | – | – | – | – | – | – |
| C/C(=N/N(C=O)C[n+]1ccccc1)C(CN(CC(C)C)CC(C)C)C(=O)Nc1ccc(C)cc1C (stereo unspecified) | > 100 µM | > 100 µM | – | > 100 µM | > 100 µM | > 100 | > 100 | – | – | > 100 µM | – | – | – | – | – | – | – | – | – | – |
| Cc1cccc(NC(=O)c2sc3nc4c(cc3c2N)CCCC4)c1C | > 100 µM | > 100 µM | > 100 | > 100 µM | > 100 µM | > 100 | > 100 | – | > 100 µM | 1.2 µM | 1.59 µM | 0.341 µM | 0.598 | 0.468 µM | 0.516 | 0.272 µM | 0.581 | 0.508 | > 100 | – |
| C/C(=N\O)c1ccc(Nc2cc(-n3nnc4ccccc43)nc3ccccc23)cc1 | – | > 100 µM | 13.5 | > 100 µM | > 62.3 µM | > 90.7 | > 53.7 | 16.2 µM | 20.5 µM | 44.7 µM | – | 5.89 µM | 3.44 | 4.5 µM | 10.3 | 19 µM | 24.1 | 19.9 | 17.5 | 5.22 µM |
| COC(=O)C1=CCON(c2ccccc2)C1c1ccccc1 (stereo unspecified) | > 100 µM | > 100 µM | > 100 | – | > 100 µM | > 100 | – | – | – | > 100 µM | – | – | – | – | – | – | – | – | – | – |
| COc1cc2nncc(Sc3cnnc4ccccc34)c2cc1OC | 32.9 µM | 59.1 µM | 63.8 | 91.6 µM | 76.6 µM | 42.3 | 68 | – | – | 51.7 µM | – | – | – | – | – | – | – | – | – | – |
| CC(C)(C)OC(=O)NCC(C#N)CNC(=O)OC(C)(C)C | > 100 µM | – | > 100 | > 100 µM | > 100 µM | > 100 | > 100 | > 100 µM | > 100 µM | > 100 µM | – | – | – | – | – | – | – | – | – | – |
| Nc1cc(N)c2nc(-c3ccccc3)c(Oc3ccc(F)cc3)nc2c1 | – | 50.7 µM | > 100 | 38.5 µM | 41.4 µM | 33.8 | 42.6 | 36.1 µM | 46.3 µM | 35.7 µM | – | 22.7 µM | 43.3 | 7.27 µM | 20.3 | 18.1 µM | 20.7 | 17.3 | 23.2 | 18.2 µM |
| CN1C2CC(C#N)C1C=CC2=O (stereo unspecified) | 51.8 µM and > 100 µM | 59.5 µM and > 100 µM | – | 19.1 µM and > 100 µM | 62.4 µM and > 100 µM | > 100 | – | 82.9 µM and > 100 µM | 92.1 µM and > 100 µM | 43.2 µM and > 100 µM | 19.5 µM and > 100 µM | 17.5 µM and 83.8 µM | – | 26.3 µM and > 100 µM | – | 18.6 µM and > 100 µM | – | – | – | 25.7 µM and > 100 µM |
| COc1ccc(OC)c(-c2cc(-c3ccccc3)nn2-c2ccc(S(=O)(=O)NC(C)=O)cc2)c1 | 13.8 µM | – | – | 35.1 µM | – | – | – | 11.5 µM | 20.6 µM | 60.4 µM | 3.08 µM | – | – | 6.08 µM | 16.1 | 28.1 µM | – | – | – | 3.38 µM |
| C[n+]1cc2c3c(ccc2c2ccc4cc5c(cc4c21)OCO5)OCO3 | 2.92 µM | 1.87 µM | 0.411 | 2.53 µM | 2.45 µM | 2.72 | 2.43 | – | 2.08 µM | 3.02 µM | 1.47 µM | 0.507 µM | 0.171 | 0.668 µM | 1.22 | 1.42 µM | 1.21 | 1.29 | 1.18 | – |
| COc1cc(-c2csc(NC(=O)c3cc(C(F)(F)F)cc(C(F)(F)F)c3)n2)cc(OC)c1OC | > 100 µM | > 100 µM | > 100 | 14.7 µM | 9.76 µM | > 100 | – | – | 7.35 µM | > 100 µM | 3.2 µM | 2.07 µM | 2.92 | 1.73 µM | 2.27 | 3.35 µM | 2.91 | 3.89 | – | – |
| O=C(CC(C(=O)c1cccs1)c1ccc2c(c1)OCO2)c1ccc(Br)cc1 (stereo unspecified) | > 100 µM | – | – | > 100 µM | > 100 µM | > 100 | > 100 | > 100 µM | > 100 µM | – | – | – | – | – | – | – | – | – | – | – |
| Clc1ccc([O][In]([O]c2ccc(Cl)cn2)[O]c2ccc(Cl)cn2)nc1 | > 100 µM | > 100 µM | > 100 | 47.5 µM | > 100 µM | > 100 | > 100 | – | – | > 100 µM | > 100 µM | > 100 µM | > 100 | – | 25.2 | > 100 µM | 64.4 | > 100 | > 100 | – |
| Fc1cccc(Cl)c1C1SCc2nc3ccccc3n21 (stereo unspecified) | > 100 µM | > 100 µM | 38 | 95.2 µM | 62.2 µM | > 100 | 72.7 | – | – | 44.4 µM | – | – | – | – | – | – | – | – | – | – |
